Consider four compounds from the NIST ThermoML archive (doi:10.1016/j.fluid.2016.02.028).

Numbers after ± are expanded uncertainties.

The conditions of this data set: 298.15 K; 101.33 kPa; Liquid; Vibrating tube method.
For `CCCC[N+](C)(CCCC)CCCC.O=S(=O)([N-]S(=O)(=O)C(F)(F)F)C(F)(F)F` [tributylmethylammonium bis((trifluoromethyl)sulfonyl)imide], the mass density (as a rule, the mass of a sample divided by its volume) came out at 1261.65 ± 6 kg/m3.

On to `c1ccccc1` [benzene], for which the mass density turned out to be 873.71 ± 2 kg/m3. The same measure for `CCCCCCCC` [octane]: 698.86 ± 2 kg/m3; for `CCCCCCCCCC` [decane]: 726.15 ± 2 kg/m3.
